From US20050020576A1, “Kappa agonist compounds and pharmaceutical formulations thereof” (priority 1996, published 2005)
Structures can show the parent of a compound that is named as a salt.

| SMILES | melting point |
| --- | --- |
| COc1cc(CC(=O)N(C)[C@H](CN2CCCC2)c2ccccc2)c(S(=O)(=O)N2CCOCC2)cc1OC (as salt: HCl) [Example 140, 2-[2-N-(Morpholinesulfamoyl)-4,5-dimethoxyphenyl]-N-methyl-N-[(1S)-1-phenyl-2-[1-(pyrrolidinyl)ethyl]]acetamide] | 229 to 231 °C |
| CN(C(=O)Cc1ccccc1NS(C)(=O)=O)[C@H](CN1CC[C@H](O)C1)c1ccccc1 (as salt: HCl) [Example 125, 2-(2-N-Methylsulfonamido-2-aminophenyl)-N-methyl-N-[(1S)-1-phenyl-2-[1-(3S)-(3-hydroxypyrrolidinyl)ethyl]]acetamide] | 168 to 171 °C |
| COc1cc(CC(=O)N(C)[C@H](CN2CCCC2)c2ccccc2)c(S(=O)(=O)N2CCCC2)cc1OC (as salt: HCl) [Example 134, 2-[2-(N-Pyrrolidinesulfamoyl)-4,5-dimethoxyphenyl]-N-methyl-N-[(1S)-1-phenyl-2-[(1-pyrrolidinyl)ethyl]]acetamide] | 240 to 242 °C |
| COC(=O)N1CCN(C(=O)Cc2ccccc2OC)C(CN2CCCC2)C1 (racemic) (as salt: hydrochloride) [(R,S-9e)] | 120 °C |
| CCOP(=O)(OCC)N1CCN(C(=O)Cc2ccc(Cl)c(Cl)c2)[C@H](CN2CCCC2)C1 (as salt: hydrochloride) [(R-3g), (R)-4-(Diethoxyphosphonate)-1-[(3,4-dichlorophenyl)acetyl]-2-[(1-pyrolidinyl)methyl]-piperazine hydrochloride] | 168 to 170 °C |
| COc1cc(CC(=O)N(C)[C@H](CN2CCCC2)c2ccccc2)c(S(=O)(=O)N(C)Cc2ccccc2)cc1OC (as salt: hydrochloride) [Example 3xx, 2-(2-N-Benzyl-2-N-methylsulfamoyl-3,4-dimethoxyphenyl)-N-methyl-N-[(1S)-1-phenyl-2-(1-pyrrolidinyl)ethyl]acetamide hydrochloride] | 188 to 190 °C |
| COc1cc(CC(=O)N(C)[C@H](CN2CCCC2)c2ccccc2)c(S(=O)(=O)N2CCN(C)CC2)cc1OC (as salt: HCl) [Example 138] | 255 to 257 °C (dec.) |
| COc1cc(CC(=O)N(C)[C@H](CN2CC[C@H](O)C2)c2ccccc2)c(S(=O)(=O)N2CCCC2)cc1OC (as salt: salt) [Example 135, 2-[2-(N-Pyrrolidinesulfamoyl)-4,5-dimethoxyphenyl]-N-methyl-N-[(1S)-1-phenyl-2-[1-(3S)-(3-hydroxypyrrolidinyl)ethyl]]acetamide] | > 120 °C (dec.) |
| CN(C(=O)Cc1ccccc1NS(C)(=O)=O)C(CN1CCCC1)c1cccc(O)c1 (racemic) (as salt: sulfonic acid salt) [Example 3vv, (R,S)-1-[2-(Methanesulfonylamino)phenyl-N-methylacetamido]-1-(3-hydroxyphenyl)-2-(1-pyrrolidino)-ethane, methanesulfonic acid salt] | 232 to 234 °C |
| COc1ccc(CC(=O)N(C)[C@H](CN2CC[C@H](O)C2)c2ccccc2)cc1NS(C)(=O)=O (as salt: HCl) [Example 127, 2-(3-N-Methylsulfonamido-3-amino-4-methoxyphenyl)-N-methyl-N-[(1S)-1-phenyl-2-[1-(3S)-(3-hydroxypyrrolidinyl)ethyl]]acetamide] | 148 to 151 °C |
| CN(C(=O)Cc1cc(Cl)c(Cl)cc1[N+](=O)[O-])[C@@H]1c2ccccc2C[C@H]1N1CCCC1 (racemic) (as salt: HCl) | 284 to 287 °C |
| CN(C(=O)Cc1ccccc1[N+](=O)[O-])[C@H](CN1CCCC1)c1cccc([N+](=O)[O-])c1 (as salt: HCl) | 258 to 259 °C |
| CNS(=O)(=O)c1ccccc1CC(=O)N(C)C(CN1CCCC1)c1ccccc1F (racemic) (as salt: salt) [Example 147] | 232 to 234 °C |
| COc1cc(CC(=O)N(C)[C@H](CN2CC[C@H](O)C2)c2ccccc2)c(S(=O)(=O)N2CCN(C)CC2)cc1OC (as salt: HCl) [Example 139] | 168 to 171 °C |
| CN(C(=O)Cc1ccccc1NS(C)(=O)=O)[C@H](CN1CCCC1)c1cccc(NS(C)(=O)=O)c1 (as salt: hydrochloride) [Example 3pp, 2-(2-Methanesulfonamidophenyl)-N-methyl-N-[(1S)-1-(3-methanesulfon-amidophenyl)-2-(1-pyrrolidinyl)ethyl]acetamide Hydrochloride] | 160 °C (dec.) |
| CN(C(=O)Cc1ccc(OCc2ccccc2)c(NS(C)(=O)=O)c1)[C@H](CN1CCCC1)c1ccccc1 (as salt: HCl) [Example 123, 2-(3-N-Methylsulfonamido-3-amino-4-benzyloxyphenyl)-N-methyl-N-[(1S)-1-phenyl-2-(1-pyrrolidinyl)ethyl]acetamide] | 219 to 221 °C |
| COC(=O)CNC(=O)c1ccccc1CC(=O)N(C)[C@H](CN1CCCC1)c1ccccc1 (as salt: hydrochloride) [Example 3mm, Methyl N-[2-(2-pheny)-N-methyl-N-{[1S]-1-phenyl-2-(1-pyrrolidinyl)ethyl}acetamido]2-oxo-glycinate hydrochloride] | 204 to 206 °C |
| COc1cc(CC(=O)N(C)[C@H](CN2CC[C@H](O)C2)c2ccccc2)cc(OC)c1OC.Cl | 230 to 232 °C |
| CN(C(=O)Cc1ccc(S(C)(=O)=O)cc1)[C@@H]1CCCC[C@H]1N1CCCC1.Cl (racemic) | 152 to 154 °C (dec.) |
| COc1cc(CC(=O)N(C)[C@H](CN2CCCC2)c2ccccc2)c(S(=O)(=O)N(C)Cc2ccccc2)cc1OC (as salt: HCl) [Example 148, 2-[2-(N-Benzyl-N-methylsulfamoyl)-4,5-dimethoxyphenyl]-N-methyl-N-[(1S)-1-phenyl-2-[(1-pyrrolidinyl)ethyl]]acetamide] | 188 to 189 °C |
| CN(C(=O)Cc1ccc(Cl)c(Cl)c1)[C@H](CN1CCCC1)c1cccc(NS(N)(=O)=O)c1 (racemic) (as salt: hydrochloride) [Example 3c, 2-(3,4-Dichlorophenyl)-N-methyl-N-[(1R,S)-1-(3-sulfamidophenyl)-2-(1-pyrrolidinyl)ethyl]acetamide hydrochloride] | 198 to 200 °C |
| CS(=O)(=O)N1CCN(C(=O)Cc2c[nH]c3ccccc23)C(CN2CCCC2)C1 (racemic) (as salt: hydrochloride) [(R,S-8e), (R,S)-4-Methanesulfonyl-1-[(3-indolylacetyl-2-[(1-pyrrolidinyl)-methyl]piperazine hydrochloride] | 219 to 221 °C |
| CN(C(=O)Cc1ccc(C(F)(F)F)cc1NCC(=O)O)[C@H](CN1CCCC1)c1ccccc1 (as salt: hydrochloride) [Example 3b, N-[(4-Trifluoromethylphenyl)-N-methyl-N-{[1S]-1-phenyl-2-[1-pyrrolidinyl)]ethyl}acetamido]glycine hydrochloride] | 228 to 230 °C (dec.) |
| CN(C(=O)Cc1ccc(C(F)(F)F)cc1[N+](=O)[O-])[C@@H]1c2ccccc2C[C@H]1N1CCCC1 (racemic) (as salt: HCl) | 249 to 250 °C |
| CNS(=O)(=O)c1ccc(CC(=O)N2CCN(C(=O)OC)CC2CN2CCCC2)cc1 (racemic) (as salt: hydrochloride) [Example 1f, Methyl-4-[-4-[N-methylamino)sulfamyl]phenyl)acetyl]-3-(R,S)-[(1-pyrrolidinyl)methyl]-1-piperazinecarboxylate hydrochloride] | 135 to 140 °C |
